Reference: paper PMC4753328, “Muscle-Type Nicotinic Receptor Blockade by Diethylamine, the Hydrophilic Moiety of Lidocaine” (Frontiers in Molecular Neuroscience, 2016)

Assays:
[1] = target: T1, muscle-type nicotinic acetylcholine receptor (nAChR) (Torpedo marmorata, UniProt P02711+Q6S3H8+Q6S3H9+Q6S3I0); assay: two-electrode voltage clamp, inhibition of currents evoked by […] ACh at −[…] mV; assay type: cell-based
T1 construct: gene CHRNA1; native nAChR purified from electroplax, reconstituted in asolectin lipids and microtransplanted to Xenopus oocytes; with β, γ and δ subunits of the heteropentamer

[2] = target: T1, muscle-type nicotinic acetylcholine receptor (nAChR); assay: two-electrode voltage clamp, ACh concentration-current curve (agonist); assay type: cell-based

T1 sequence (P02711 25-461): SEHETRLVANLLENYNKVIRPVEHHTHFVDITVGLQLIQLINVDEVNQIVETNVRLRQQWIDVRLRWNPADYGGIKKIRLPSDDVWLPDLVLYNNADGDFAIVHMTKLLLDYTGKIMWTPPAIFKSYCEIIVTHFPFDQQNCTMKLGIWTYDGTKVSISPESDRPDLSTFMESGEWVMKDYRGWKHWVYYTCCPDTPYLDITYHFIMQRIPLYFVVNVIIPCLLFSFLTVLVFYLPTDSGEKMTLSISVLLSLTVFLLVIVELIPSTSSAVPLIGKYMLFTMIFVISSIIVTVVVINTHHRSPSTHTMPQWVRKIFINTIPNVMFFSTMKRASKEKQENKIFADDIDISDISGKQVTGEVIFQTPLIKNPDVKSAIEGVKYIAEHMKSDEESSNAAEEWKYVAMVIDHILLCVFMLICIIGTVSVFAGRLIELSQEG
T1 sequence (Q6S3I0 25-493): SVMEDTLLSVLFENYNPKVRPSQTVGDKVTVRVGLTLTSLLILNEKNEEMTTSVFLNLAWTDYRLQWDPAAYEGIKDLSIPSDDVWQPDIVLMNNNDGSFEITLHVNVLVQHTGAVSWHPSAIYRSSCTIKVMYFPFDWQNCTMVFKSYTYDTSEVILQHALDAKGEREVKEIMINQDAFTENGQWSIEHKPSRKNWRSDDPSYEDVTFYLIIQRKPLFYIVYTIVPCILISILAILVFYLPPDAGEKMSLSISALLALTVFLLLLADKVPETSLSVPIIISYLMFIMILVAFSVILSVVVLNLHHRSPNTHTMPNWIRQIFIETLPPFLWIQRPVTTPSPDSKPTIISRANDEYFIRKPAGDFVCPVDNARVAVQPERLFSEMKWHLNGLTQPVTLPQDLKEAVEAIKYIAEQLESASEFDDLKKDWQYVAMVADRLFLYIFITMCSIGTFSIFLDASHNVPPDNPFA
T1 sequence (Q6S3H9 18-505): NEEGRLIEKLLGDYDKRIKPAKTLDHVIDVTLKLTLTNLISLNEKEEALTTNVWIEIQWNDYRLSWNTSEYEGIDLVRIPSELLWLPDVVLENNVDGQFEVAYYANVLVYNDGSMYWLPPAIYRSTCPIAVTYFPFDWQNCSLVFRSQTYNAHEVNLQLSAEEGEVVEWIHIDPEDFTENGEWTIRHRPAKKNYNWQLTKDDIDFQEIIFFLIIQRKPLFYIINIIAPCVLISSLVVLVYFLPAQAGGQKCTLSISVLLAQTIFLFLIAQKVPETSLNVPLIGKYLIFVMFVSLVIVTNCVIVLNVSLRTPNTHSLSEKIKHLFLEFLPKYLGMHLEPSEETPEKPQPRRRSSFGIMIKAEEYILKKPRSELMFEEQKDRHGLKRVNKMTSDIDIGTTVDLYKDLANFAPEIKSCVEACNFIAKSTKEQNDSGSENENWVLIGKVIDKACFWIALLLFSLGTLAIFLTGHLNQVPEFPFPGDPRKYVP
T1 sequence (Q6S3H8 22-522): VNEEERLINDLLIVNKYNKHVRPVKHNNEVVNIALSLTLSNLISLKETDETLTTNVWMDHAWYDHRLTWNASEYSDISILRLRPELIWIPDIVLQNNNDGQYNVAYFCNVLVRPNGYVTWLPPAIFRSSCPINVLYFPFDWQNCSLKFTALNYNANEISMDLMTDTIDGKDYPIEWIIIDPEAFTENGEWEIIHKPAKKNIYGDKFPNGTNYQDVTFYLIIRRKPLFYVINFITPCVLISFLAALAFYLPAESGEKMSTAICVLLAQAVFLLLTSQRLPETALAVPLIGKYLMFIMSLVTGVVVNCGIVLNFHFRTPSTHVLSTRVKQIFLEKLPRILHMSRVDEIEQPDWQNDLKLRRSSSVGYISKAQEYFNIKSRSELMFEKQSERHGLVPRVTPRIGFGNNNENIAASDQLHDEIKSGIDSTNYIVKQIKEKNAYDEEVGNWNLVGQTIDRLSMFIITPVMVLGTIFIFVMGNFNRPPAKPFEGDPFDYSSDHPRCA

CCNCC [DEA, diethylamine]
IC50 [1]: 68 µM

CC(=O)OCC[N+](C)(C)C [ACh, acetylcholine]
EC50 [2]: 46 µM
